Experiments:
Galectin-1 [1] = biological target: T1, Galectin-1 (Homo sapiens, UniProt P09382); assay: Binding affinity to human Gal-1 assessed as inhibition of Gal-1 binding to immobilized asialofetuin pretreated with Gal-1 for 2 hrs followed by incubation with asialofetuin for 2 hrs by competitive solid phase assay
Galectin-1 [2] = biological target: T1, Galectin-1; assay: Binding affinity to human Gal-1 assessed as inhibition of Gal-1 binding to immobilized asialofetuin pretreated with Gal-1 for 2 hrs followed by incubation with asialofetuin for 2 hrs by competitive solid phase assay relative to lactose; conditions: time 4.0 hrs
Galectin-1 [3] = biological target: T1, Galectin-1; assay: Binding affinity to human Gal-1 assessed as change in entropy by isothermal titration calorimetry
Galectin-1 [4] = biological target: T1, Galectin-1; assay: Binding affinity to human Gal-1 assessed as dissociation constant by isothermal titration calorimetry
Galectin-1 [5] = biological target: T1, Galectin-1; assay: Binding affinity to human Gal-1 assessed as change in enthalpy by isothermal titration calorimetry
Galectin-1 [6] = biological target: T1, Galectin-1; assay: Binding affinity to human Gal-1 assessed as Gibbs free energy change by isothermal titration calorimetry

T1 sequence (P09382 whole entry): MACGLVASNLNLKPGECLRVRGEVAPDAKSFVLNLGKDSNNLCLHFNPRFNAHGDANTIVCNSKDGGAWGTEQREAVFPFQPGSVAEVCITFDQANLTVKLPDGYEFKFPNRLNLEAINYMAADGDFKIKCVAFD

Row | SMILES | IC50 (Galectin-1 [1]; read-out: IC50) [µM] | Ratio (Galectin-1 [2]) | -TdeltaS (Galectin-1 [3]) [kcal/mol] | deltaS (Galectin-1 [3]) [J/mol.K] | Kd (Galectin-1 [4]) [µM] | deltaH (Galectin-1 [5]) [kcal/mol] | deltaG (Galectin-1 [6]) [kcal/mol] | IC50 (Galectin-1 [1])
1 | CC(=O)N[C@H]1[C@H](O[C@H]2[C@H](O)[C@@H](NC(C)=O)C(O)O[C@@H]2CO)O[C@H](CO[C@@H]2O[C@H](CO)[C@H](O)[C@H](O)[C@H]2O)[C@@H](O)[C@@H]1O (stereo partly specified) | 21200 | 0.22 | -0.598 | 8.4 | 770 | -3.66 | -4.25 | –
2 | CC(=O)N[C@H]1C(O)O[C@H](CO)[C@@H](O)[C@@H]1O[C@@H]1O[C@H](CO)[C@H](O)[C@H](O)[C@H]1O (stereo partly specified) | 2050 | 2.37 | 6.21 | -87.2 | 161 | -11.4 | -5.19 | –
3 | CC(=O)N[C@H]1C(O)O[C@H](CO[C@@H]2O[C@H](CO)[C@H](O)[C@H](O)[C@H]2O)[C@@H](O)[C@@H]1O (stereo partly specified) | 13000 | 0.36 | -0.215 | 3 | 499 | -4.28 | -4.49 | –
4 | CC(=O)N[C@H]1C(O)O[C@H](CO)[C@@H](O[C@@H]2O[C@H](CO)[C@H](O)[C@H](O)[C@H]2O)[C@@H]1O (stereo partly specified) | 1970 | 2.37 | 6.55 | -91.9 | 96 | -12 | -5.47 | –
5 | OC[C@H]1O[C@@H](O[C@H]2[C@H](O)[C@@H](O)C(O)O[C@@H]2CO)[C@H](O)[C@@H](O)[C@H]1O (stereo partly specified) | – | – | 5.71 | -80.2 | – | -10.8 | – | –
6 | OC[C@H]1O[C@@H](OC[C@H]2OC(O)[C@H](O)[C@@H](O)[C@@H]2O)[C@H](O)[C@@H](O)[C@H]1O (stereo partly specified) | – | – | -2.13 | – | 1330 | -1.79 | -3.92 | Not Active
